Among the data in patent publication US20060046966A1, “Antipicornaviral compounds and compositions, their pharmaceutical uses, and materials for their synthesis” (Agouron Pharmaceuticals, Inc., priority 1998, published 2006) are kinact/KI, EC50 and melting point values, retold here.

Data set [1] addresses T1, rhinovirus 3C protease from HRV serotype-14 (Human rhinovirus 14, UniProt P03303).
T1 construct: Recombinant rhinovirus 3C proteases; made in house
Briefly: Inhibition of rhinovirus 3C protease (FRET assay), serotype 14. It counts as biochemical. Conditions: HRV serotype-14 3C protease; progress curves in enzyme start experiments; read-out: Protease Inhibition kobs/[I]. The procedure:
(§1) Stock solutions (50 mM, in DMSO) of various compounds were prepared; dilutions were in the same solvent. Recombinant rhinovirus 3C proteases (see Birch et al., “Purification of recombinant human rhinovirus 14 3C protease expressed in Escherichia coli,” Protein Expr. Pur. 1995, 6(5), 609-618) from serotypes 14, 16, and 2 were prepared by the following standard chromatographic procedures: (1) ion exchange using Q Sepharose Fast Flow from Pharmacia; (2) affinity chromatography using Affi-Gel Blue from Biorad; and (3) sizing using Sephadex G-100 from Pharmacia. Each assay sample contained 2% DMSO, 50 mM tris pH 7.6, 1 mM EDTA, a test compound at the indicated concentration, approximately 1 μM substrate, and 50-100 nM protease. The kobs/I values were obtained from reactions initiated by addition of enzyme rather than substrate. RVP activity was measured in the fluorescence resonance energy transfer assay. The substrate was (N-terminal) DABCYL-(Gly-Arg-Ala-Val-Phe-Gln-Gly-Pro-Val-Gly)-EDANS. In the uncleaved peptide, the EDANS fluorescence was quenched by the proximal DABCYL moiety. When the peptide was cleaved, the quenching was relieved, and activity was measured as an increase in fluorescence signal. In Table 1, all data are for rhinovirus 3C protease from HRV serotype-14 (produced from the infectious cDNA clone constructed by Dr. Robert Rueckert, Institute for Molecular Virology, University of Wisconsin, Madison, Wis.). […] The data in the column designated kobs/[I] were measured from progress curves in enzyme start experiments.

The target of data set [2] is T2, rhinovirus 3C protease, serotype 16 (Human rhinovirus 16, UniProt Q82122).
T2 construct: Recombinant rhinovirus 3C proteases; made in house
T2 sequence (Q82122 1511-1693): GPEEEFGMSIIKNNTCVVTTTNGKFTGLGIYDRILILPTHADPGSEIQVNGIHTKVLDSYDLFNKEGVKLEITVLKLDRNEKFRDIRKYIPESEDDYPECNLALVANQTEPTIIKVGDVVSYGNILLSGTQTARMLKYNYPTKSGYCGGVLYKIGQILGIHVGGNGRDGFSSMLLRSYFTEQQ
Description: Inhibition of rhinovirus 3C protease (FRET assay), serotype 16. The class given is biochemical. Conditions: Rhinovirus Serotype (16) 3C protease; read-out: kobs/I. The procedure:
Stock solutions (50 mM, in DMSO) of various compounds were prepared; dilutions were in the same solvent. Recombinant rhinovirus 3C proteases (see Birch et al., “Purification of recombinant human rhinovirus 14 3C protease expressed in Escherichia coli,” Protein Expr. Pur. 1995, 6(5), 609-618) from serotypes 14, 16, and 2 were prepared by the following standard chromatographic procedures: (1) ion exchange using Q Sepharose Fast Flow from Pharmacia; (2) affinity chromatography using Affi-Gel Blue from Biorad; and (3) sizing using Sephadex G-100 from Pharmacia. Each assay sample contained 2% DMSO, 50 mM tris pH 7.6, 1 mM EDTA, a test compound at the indicated concentration, approximately 1 μM substrate, and 50-100 nM protease. The kobs/I values were obtained from reactions initiated by addition of enzyme rather than substrate. RVP activity was measured in the fluorescence resonance energy transfer assay. The substrate was (N-terminal) DABCYL-(Gly-Arg-Ala-Val-Phe-Gln-Gly-Pro-Val-Gly)-EDANS. In the uncleaved peptide, the EDANS fluorescence was quenched by the proximal DABCYL moiety. When the peptide was cleaved, the quenching was relieved, and activity was measured as an increase in fluorescence signal. […] The data in the column designated kobs/[I] were measured from progress curves in enzyme start experiments.

In data set [3] the target is T3, rhinovirus 3C protease, serotype 2 (Human rhinovirus 2, UniProt P04936).
T3 construct: Recombinant rhinovirus 3C proteases; made in house
T3 sequence (P04936 1508-1690): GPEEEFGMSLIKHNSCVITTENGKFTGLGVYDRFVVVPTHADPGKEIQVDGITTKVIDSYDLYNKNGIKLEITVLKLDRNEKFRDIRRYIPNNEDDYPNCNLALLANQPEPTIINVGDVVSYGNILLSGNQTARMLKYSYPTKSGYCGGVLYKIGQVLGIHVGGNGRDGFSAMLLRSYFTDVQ
Description: Inhibition of rhinovirus 3C protease (FRET assay), serotype 2. The class given is biochemical. The settings on record: Rhinovirus Serotype (2) 3C protease; read-out: kobs/I. The procedure:
as §1

The next data set deals with HRV-14. Briefly: Antirhinoviral H1-HeLa cell culture assay, HRV-14. It counts as cell-based, human rhinovirus. The settings on record: Rhinovirus B, HRV14, H1-HeLa, HRV serotype-14, H1-HeLa cells. The procedure:
(§2) In this cell protection assay, the ability of compounds to protect cells against HRV infection was measured by the XTT dye reduction method, which is described in Weislow et al., J. Natl. Cancer Inst. 1989, vol. 81, 577-586.
(§3) H1-HeLa cells were infected with HRV-14 at a multiplicity of infection (m.o.i.) of 0.13 (virus particles/cell) or mock-infected with medium only. Infected or mock-infected cells were resuspended at 8×10^5 cells per mL, and incubated with appropriate concentrations of the compounds to be tested. Two days later, XTT/PMS was added to test plates and the amount of formazan produced was quantified spectrophotometrically at 450/650 nm. The EC50 value was calculated as the concentration of compound that increased the percentage of formazan production in compound-treated, virus-infected cells to 50% of that produced by compound-free, mock-infected cells. The 50% cytotoxic dose (CC50) was calculated as the concentration of compound that decreased the percentage of formazan produced in compound-treated, mock-infected cells to 50% of that produced by compound-free, mock-infected cells. The therapeutic index (TI) was calculated by dividing the CC50 value by the EC50 value.
(§4) All strains of human rhinovirus (HRV) for use in this assay were purchased from American Type Culture Collection (ATCC), except for HRV serotype-14 (produced from the infectious cDNA clone constructed by Dr. Robert Rueckert, Institute for Molecular Virology, University of Wisconsin, Madison, Wis.). HRV stocks were propagated and viral assays were performed in H1-HeLa cells (ATCC). Cells were grown in minimal essential medium with 10% fetal bovine serum, available from Life Technologies (Gaithersburg, Md.).
(§5) The compounds were tested against control compounds WIN 51711, WIN 52084, and WIN 54954 (obtained from Sterling-Winthrop Pharmaceuticals), Pirodavir (obtained from Janssen Pharmaceuticals), and Pleconaril (prepared according to the method described in Diana et al., J. Med. Chem 1995, vol. 38, 1355). Antiviral data obtained for the test compounds are shown in Tables 1 and 3, where all data are for HRV serotype-14 unless otherwise noted in parentheses.

The subject of the next data set is HRV (2). Description: Antirhinoviral H1-HeLa cell culture assay, HRV serotype 2. It counts as cell-based, human rhinovirus. The settings on record: H1-HeLa cells, XTT. The procedure: as §2, §3, §4, §5
The next data set deals with HRV (89). Briefly: Antirhinoviral H1-HeLa cell culture assay, HRV serotype 89. Conditions: H1-HeLa cells, XTT. It counts as cell-based, human rhinovirus. The method, then:
as §2, §3, §4, §5
Background: Formazan colour is commonly taken as a measure of viable cells.

In a further data set the test system is HRV (39). Briefly: Antirhinoviral H1-HeLa cell culture assay, HRV serotype 39. It counts as cell-based, human rhinovirus. Conditions: H1-HeLa cells, XTT. The method, then:
as §2, §3, §4
(§6) The compounds were tested against control compounds WIN 51711, WIN 52084, and WIN 54954 (obtained from Sterling-Winthrop Pharmaceuticals), Pirodavir (obtained from Janssen Pharmaceuticals), and Pleconaril (prepared according to the method described in Diana et al., J. Med. Chem 1995, vol. 38, 1355). […]

In the next data set the test system is HRV (10). Description: Antirhinoviral H1-HeLa cell culture assay, HRV serotype 10. It counts as cell-based, human rhinovirus. The settings on record: H1-HeLa cells, XTT. The procedure:
as §2, §3, §4, §5

In the next data set the test system is HRV (3). Briefly: Antirhinoviral H1-HeLa cell culture assay, HRV serotype 3. It counts as cell-based, human rhinovirus. The settings on record: H1-HeLa cells, XTT. The method, then: as §2, §3, §4, §6
The test system of another data set is HRV (9). Briefly: Antirhinoviral H1-HeLa cell culture assay, HRV serotype 9. Conditions: H1-HeLa cells, XTT. It counts as cell-based, human rhinovirus. The procedure: as §2, §3, §4, §6
The next data set relates to HRV (13). Briefly: Antirhinoviral H1-HeLa cell culture assay, HRV serotype 13. It counts as cell-based, human rhinovirus. The settings on record: H1-HeLa cells, XTT. The method, then: as §2, §3, §4, §6
The subject of the next data set is HRV (17). Description: Antirhinoviral H1-HeLa cell culture assay, HRV serotype 17. Conditions: H1-HeLa cells, XTT. The class given is cell-based, human rhinovirus. The method, then:
as §2, §3, §4, §6

The mark [4] stands for this setting: Table 1, XTT dye reduction, read-out: Cell Protection EC50.

SMILES strings stand for the structures. Read-outs that look alike come from different tables or passages of the source.

For orientation: EC50 means the concentration that produces a half-maximal response. The melting point is the temperature, or range, at which the solid turns liquid.

T1 sequence (P03303 1538-1719): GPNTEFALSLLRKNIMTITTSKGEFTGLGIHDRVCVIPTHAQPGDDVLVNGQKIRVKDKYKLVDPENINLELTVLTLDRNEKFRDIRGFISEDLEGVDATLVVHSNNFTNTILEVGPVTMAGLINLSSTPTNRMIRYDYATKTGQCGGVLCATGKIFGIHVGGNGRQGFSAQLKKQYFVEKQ

On to `CCOC(=O)/C=C/[C@H](CCC(N)=O)NC(=O)[C@H](Cc1ccccc1)NC(=O)[C@@H](NC(=O)OCc1ccccc1)C(C)C` [Comparison Compound #3, Ethyl-3-(Cbz-L-Val-L-Phe-L-Gln)-E-Propenoate], for which the melting point is 240 °C (dec.). In addition, in data set [1], the kinact/KI was 62500 M⁻¹ s⁻¹. Further, the kinact/KI in data set [2] worked out at 16900 M⁻¹ s⁻¹. The kinact/KI in data set [3] was determined as 8000 M⁻¹ s⁻¹. In addition, in the data set with HRV-14 (setting [4]), the EC50 came to 380 nM. For the same molecule, the concentration for a half-maximal effect (EC50) in the data set on HRV-14 (Table 3, XTT, read-out: EC50) was 380 nM.

Turning to `CCOC(=O)/C=C/[C@H](C[C@@H]1CCNC1=O)NC(=O)[C@H](Cc1ccc(F)cc1)NC(=O)[C@@H](NC(=O)c1cc(C)on1)C(C)(C)C` [Compound A-7, Ethyl-3-{(5′-Methylisoxazole-3′-carbonyl)-L-α-(t-Butyl-Gly)-L-(4-F-Phe)-L-((S)-Pyrrol-Ala)}-E-Provenoate], in data set [1], the kinact/KI amounted to 980000 M⁻¹ s⁻¹. For the same molecule, the concentration for a half-maximal effect (EC50) in the data set on HRV-14 (setting [4]) came out at 4 nM; in the data set with HRV (2), 20 nM; in the data set on HRV (89) it was 20 nM; with HRV (39) it was 20 nM; in the data set with HRV (10), 60 nM; in the data set on HRV (3), 20 nM. Also, the EC50 in the data set on HRV (9) was 40 nM; with HRV (13), 30 nM; in the data set on HRV (17), 20 nM.

For `CCOC(=O)/C=C/[C@H](C[C@@H]1CCNC1=O)NC(=O)[C@H](Cc1ccccc1)NC(=O)[C@H](CC(C)C)NC(=O)OCc1ccccc1` [Compound A-24, Ethyl-3-{Cbz-L-Leu-L-Phe-L-((S)-Pyrrol-Ala)}-E-Propenoate], the values for the kinact/KI in data set [1] and in data set [3] were 257000 M⁻¹ s⁻¹ and 31000 M⁻¹ s⁻¹, respectively. Further, the EC50 is 100 nM in the data set on HRV-14 (setting [4]) and 100 nM in the data set with HRV-14 (Table 3, XTT, read-out: EC50).
